Test results published in patent US7109296B2, “Human 5-HT3-C protein” (Ortho-McNeil Pharmaceutical, Inc., priority 1999, dated 2006).

Tests used:
human 5-HT3-C = target: T1, human 5-HT3-C (Homo sapiens, UniProt Q8WXA8); experiment: Two-electrode voltage clamp, Xenopus oocytes injected with 5-HT3-C cRNA alone; format: cell-based
T1 construct: Characterization of the Function of Protein Encoded by p5HT3CR in Xenopus oocvtes; expressed in transfected cells; host or cells: Xenopus laevis oocytes injected with in vitro transcribed cRNA (pGEM HE)
T1 sequence (Q8WXA8 28-447): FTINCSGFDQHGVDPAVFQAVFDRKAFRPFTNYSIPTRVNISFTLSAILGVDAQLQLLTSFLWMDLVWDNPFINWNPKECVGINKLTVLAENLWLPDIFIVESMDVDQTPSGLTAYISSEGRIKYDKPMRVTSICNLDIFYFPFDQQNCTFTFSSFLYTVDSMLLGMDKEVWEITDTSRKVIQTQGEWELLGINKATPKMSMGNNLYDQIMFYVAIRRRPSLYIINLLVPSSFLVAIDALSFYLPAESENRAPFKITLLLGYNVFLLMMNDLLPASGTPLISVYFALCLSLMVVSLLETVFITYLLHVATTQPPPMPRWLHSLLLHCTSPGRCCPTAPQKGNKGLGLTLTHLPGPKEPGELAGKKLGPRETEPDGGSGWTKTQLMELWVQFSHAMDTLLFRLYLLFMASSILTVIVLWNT
Procedure: Characterization of the Function of Protein Encoded by p5HT3CR in Xenopus oocvtes Xenopus laevis oocytes were prepared and injected using standard methods previously described and known in the art (Fraser et al., 1993). Ovarian lobes from adult female Xenopus laevis (Nasco, Fort Atkinson, Wis.) were teased apart, rinsed several times in nominally Ca-free saline containing (in mM): NaCl 82.5, KCl 2.5, MgCl2 1, HEPES 5, adjusted to pH 7.0 with NaOH(OR-2), and gently shaken in OR-2 containing 0.2% collagenase Type 1 (ICN Biomedicals, Aurora, Ohio) for 2–5 hours. When approximately 50% of the follicular layers were removed, Stage V and VI oocytes were selected and rinsed in media consisting of 75% OR-2 and 25% ND-96. The ND-96 contained (in mM): NaCl 100, KCl 2, MgCl2 1, CaCl2 1.8, HEPES 5, Na pyruvate 2.5, gentamicin (50 ug/ml), adjusted to pH 7.0 with NaOH. […] For in vitro transcription, pGEM HE (Liman et al., 1992) containing human 5-HT3-A (Genbank D49394) or 5-HT3-C cDNA was linearized with NheI and transcribed with T7 RNA polymerase (Stratagene) in the presence of the cap analog m7G(5′)ppp(5′)G. The synthesized cRNA was purified with a Sephadex G-50 spin column. […] Control oocytes were injected with 50 nl of water. Oocytes were incubated for 2–14 days in ND-96 before analysis for expression of the human 5-HT3-C. Incubations and collagenase digestion were carried out at room temperature. Injected oocytes were maintained in 48 well cell culture clusters (Costar, Cambridge, Mass.) at 18° C. Whole cell agonist-induced currents were measured 1–14 days after injection with a conventional two-electrode voltage clamp (GeneClamp500, Axon Instruments, Foster City, Calif.) using standard methods previously described and known in the art (Dascal, 1987). The microelectrodes were filled with 3 M KCl, which had resistances of 1 and 2 MΩ. Cells were continuously perfused with ND96 at 10 ml/min at room temperature unless indicated. Membrane voltage was clamped at −70 mV unless indicated.

[1] = target: T2, 5-HT3-C together with nicotinic ACh receptor a6 subunit (Homo sapiens, UniProt Q15825+Q8WXA8); experiment: Two-electrode voltage clamp, oocytes injected with 5-HT3-C together with nicotinic ACh receptor α6 subunit; format: cell-based; conditions: 10 μM; eight days after injection; 5-HT3-C 0.67 ng, a6 1 ng/oocyte
T2 construct: Characterization of the Function of Protein Encoded by p5HT3CR in Xenopus oocvtes; expressed in transfected cells; host or cells: Xenopus laevis oocytes injected with cRNA
Procedure: Characterization of the Function of Protein Encoded by p5HT3CR in Xenopus oocvtes Xenopus laevis oocytes were prepared and injected using standard methods previously described and known in the art (Fraser et al., 1993). Ovarian lobes from adult female Xenopus laevis (Nasco, Fort Atkinson, Wis.) were teased apart, rinsed several times in nominally Ca-free saline containing (in mM): NaCl 82.5, KCl 2.5, MgCl2 1, HEPES 5, adjusted to pH 7.0 with NaOH(OR-2), and gently shaken in OR-2 containing 0.2% collagenase Type 1 (ICN Biomedicals, Aurora, Ohio) for 2–5 hours. When approximately 50% of the follicular layers were removed, Stage V and VI oocytes were selected and rinsed in media consisting of 75% OR-2 and 25% ND-96. The ND-96 contained (in mM): NaCl 100, KCl 2, MgCl2 1, CaCl2 1.8, HEPES 5, Na pyruvate 2.5, gentamicin (50 ug/ml), adjusted to pH 7.0 with NaOH. […] For in vitro transcription, pGEM HE (Liman et al., 1992) containing human 5-HT3-A (Genbank D49394) or 5-HT3-C cDNA was linearized with NheI and transcribed with T7 RNA polymerase (Stratagene) in the presence of the cap analog m7G(5′)ppp(5′)G. The synthesized cRNA was purified with a Sephadex G-50 spin column. Oocytes were injected with 50 nl of the human serotonin 5-HT3-A receptor with or without the 5-HT3-C RNA (0.02 and 0.002–0.2 ng each) or other channel or receptor subunit. Control oocytes were injected with 50 nl of water. Oocytes were incubated for 2–14 days in ND-96 before analysis for expression of the human 5-HT3-C. Incubations and collagenase digestion were carried out at room temperature. Injected oocytes were maintained in 48 well cell culture clusters (Costar, Cambridge, Mass.) at 18° C. Whole cell agonist-induced currents were measured 1–14 days after injection with a conventional two-electrode voltage clamp (GeneClamp500, Axon Instruments, Foster City, Calif.) using standard methods previously described and known in the art (Dascal, 1987). The microelectrodes were filled with 3 M KCl, which had resistances of 1 and 2 MΩ. […]

T2 sequence (Q15825 26-494, one chain of several): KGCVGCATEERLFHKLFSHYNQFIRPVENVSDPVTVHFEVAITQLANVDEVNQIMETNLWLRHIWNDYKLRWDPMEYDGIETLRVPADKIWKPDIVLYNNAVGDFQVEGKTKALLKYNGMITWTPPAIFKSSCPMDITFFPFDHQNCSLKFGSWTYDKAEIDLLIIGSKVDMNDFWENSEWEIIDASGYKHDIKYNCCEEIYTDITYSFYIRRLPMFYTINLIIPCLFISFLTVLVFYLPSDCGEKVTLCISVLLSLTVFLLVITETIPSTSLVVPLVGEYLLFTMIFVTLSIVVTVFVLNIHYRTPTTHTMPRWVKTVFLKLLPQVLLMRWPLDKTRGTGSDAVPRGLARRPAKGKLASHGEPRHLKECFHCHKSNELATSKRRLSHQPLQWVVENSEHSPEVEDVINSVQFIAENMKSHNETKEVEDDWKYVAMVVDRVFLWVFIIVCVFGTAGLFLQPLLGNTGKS

## NCCc1c[nH]c2ccc(O)cc12 [5-HT, 5-hydroxytryptamine]
Human 5-HT3-C; >100 μM, only 5-HT3-C cRNA (33.5 ng), n=5
  sensitivity of oocytes to neuroactive compound: insensitive
Human 5-HT3-C; ≧100 μM, 33.5 ng or 3.35 ng 5-HT3-C cRNA/oocyte
  effect of agonist (agonist-induced current): no effect
[1]
  responsiveness of oocytes to agonist: not responsive
